Results as given in PubChem BioAssay AID330 (DTP/NCI, 2004).
Where “and” joins values, the source holds several entries; their conditions need not be identical. Equal values may be shown once. Toxic doses and inconclusive results are not listed. Rule for the calls: active = survival T/C of 150% or more; inactive = T/C below 125% in these data.

System: P388 leukemia ip, CD2F1 mice, survival T/C
Experiment: NCI In Vivo Anticancer Drug Screen. Data for tumor model P388 Leukemia (intraperitoneal) in CD2F1 (CDF1) mice
Conditions: endpoint: median survival time, higher = longer survival
Summary of the method: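 Mice carrying the transplanted tumor received test compound or vehicle. Survival was recorded in each group, and the value is the treated-group measurement divided by that of the vehicle-treated control group.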

[1] = dose: 50.0 mg/kg/injection, schedule: Q01DX005 (ip), vehicle: Klucel (hydroxypropylcellulose) (HPC)
[2] = dose: 100.0 mg/kg/injection, schedule: Q01DX005 (ip), vehicle: Klucel (hydroxypropylcellulose) (HPC)
[3] = dose: 200.0 mg/kg/injection, schedule: Q01DX005 (ip), vehicle: Klucel (hydroxypropylcellulose) (HPC)
[4] = dose: 100.0 mg/kg/injection, schedule: Q04DX002 (ip), vehicle: saline with Tween-80
[5] = dose: 100.0 mg/kg/injection, schedule: Q01DX001 (ip), vehicle: saline with Tween-80
[6] = dose: 200.0 mg/kg/injection, schedule: Q01DX001 (ip), vehicle: saline with Tween-80
[7] = dose: 400.0 mg/kg/injection, schedule: Q01DX001 (ip), vehicle: saline with Tween-80
[8] = dose: 50.0 mg/kg/injection, schedule: Q01DX009 (ip), vehicle: saline with Tween-80
[9] = dose: 100.0 mg/kg/injection, schedule: Q01DX009 (ip), vehicle: saline with Tween-80

Measured: T/C

C[S+](C)CCCl
inactive: dose: 50.0 mg/kg/injection, schedule: Q01DX005 (ip), vehicle: saline 100 % of control | dose: 100.0 mg/kg/injection, schedule: Q01DX005 (ip), vehicle: saline 107 % of control | dose: 200.0 mg/kg/injection, schedule: Q01DX005 (ip), vehicle: saline 109 % of control

c1ccc2c(c1)ncn2Sn1cnc2ccccc21
inactive: dose: 17.5 mg/kg/injection, schedule: Q01DX005 (ip), vehicle: Klucel (hydroxypropylcellulose) (HPC) 102 % of control | dose: 35.0 mg/kg/injection, schedule: Q01DX005 (ip), vehicle: Klucel (hydroxypropylcellulose) (HPC) 118 % of control | dose: 70.0 mg/kg/injection, schedule: Q01DX005 (ip), vehicle: Klucel (hydroxypropylcellulose) (HPC) 104 % of control

O=c1cc(-c2ccc(OCc3ccccc3)cc2)oc2c(-c3c(OCc4ccccc4)cc(OCc4ccccc4)c4c(=O)cc(-c5ccc(OCc6ccccc6)cc5)oc34)c(OCc3ccccc3)cc(OCc3ccccc3)c12
inactive: dose: 100.0 mg/kg/injection, schedule: Q01DX001 (ip), vehicle: Klucel (hydroxypropylcellulose) (HPC) 95 % of control | dose: 200.0 mg/kg/injection, schedule: Q01DX001 (ip), vehicle: Klucel (hydroxypropylcellulose) (HPC) 92 % of control | dose: 400.0 mg/kg/injection, schedule: Q01DX001 (ip), vehicle: Klucel (hydroxypropylcellulose) (HPC) 103 % of control

C1CCC2(CC1)NCCO2
inactive: dose: 25.0 mg/kg/injection, schedule: Q01DX005 (ip), vehicle: suspension in saline 98 % of control | dose: 50.0 mg/kg/injection, schedule: Q01DX005 (ip), vehicle: suspension in saline 93 % of control | dose: 100.0 mg/kg/injection, schedule: Q01DX005 (ip), vehicle: suspension in saline 94 % of control | dose: 200.0 mg/kg/injection, schedule: Q01DX005 (ip), vehicle: suspension in saline 109 % of control | dose: 400.0 mg/kg/injection, schedule: Q01DX005 (ip), vehicle: suspension in saline 98 % of control

Nc1ncnc2c1ccn2CC(O)COP(=O)(O)O (centres undefined)
inactive: dose: 50.0 mg/kg/injection, schedule: Q01DX005 (ip), vehicle: distilled water + alcohol 104 % of control | dose: 100.0 mg/kg/injection, schedule: Q01DX005 (ip), vehicle: distilled water + alcohol 100 % of control | dose: 200.0 mg/kg/injection, schedule: Q01DX005 (ip), vehicle: distilled water + alcohol 100 % of control

O=c1oc(-c2ccccc2O)ns1
inactive: dose: 100.0 mg/kg/injection, schedule: Q01DX009 (ip), vehicle: Klucel (hydroxypropylcellulose) (HPC) 98 % of control | dose: 200.0 mg/kg/injection, schedule: Q01DX009 (ip), vehicle: Klucel (hydroxypropylcellulose) (HPC) 102 % of control | dose: 400.0 mg/kg/injection, schedule: Q01DX009 (ip), vehicle: Klucel (hydroxypropylcellulose) (HPC) 97 % of control

O=C(Nc1ccc(Cl)c(Cl)c1)OCc1ccco1
inactive: dose: 60.0 mg/kg/injection, schedule: Q01DX005 (ip), vehicle: Klucel (hydroxypropylcellulose) (HPC) 105 % of control | dose: 120.0 mg/kg/injection, schedule: Q01DX005 (ip), vehicle: Klucel (hydroxypropylcellulose) (HPC) 105 % of control

NC(=O)N(CCO)/N=C/C=C/c1ccc([N+](=O)[O-])o1
inactive: [1] 106 % of control | [2] 115 % of control | [3] 108 % of control

Nc1nnc2nc(CC(=O)c3ccccc3)c(CC(=O)c3ccccc3)nn12
inactive: dose: 60.0 mg/kg/injection, schedule: Q01DX005 (ip), vehicle: saline 95 % of control | dose: 120.0 mg/kg/injection, schedule: Q01DX005 (ip), vehicle: saline 94 % of control | dose: 240.0 mg/kg/injection, schedule: Q01DX005 (ip), vehicle: saline 100 % of control

CC(C)CC1NC(=O)C(CC(C)C)N(CO)C1=O (centres undefined)
inactive: [1] 97 % of control | [2] 99 % of control | [3] 95 % of control

C/C(=C\c1cc2c(cc1Cl)OCO2)[N+](=O)[O-]
inactive: dose: 100.0 mg/kg/injection, schedule: Q04DX002 (ip), vehicle: Klucel (hydroxypropylcellulose) (HPC) 104 % of control | dose: 200.0 mg/kg/injection, schedule: Q04DX002 (ip), vehicle: Klucel (hydroxypropylcellulose) (HPC) 102 % of control | dose: 400.0 mg/kg/injection, schedule: Q04DX002 (ip), vehicle: Klucel (hydroxypropylcellulose) (HPC) 118 % of control

CC1C(=O)OC2C1CCC1(C)CCC(=O)C(C)C21 (centres undefined)
inactive: [4] 101 % of control

COC(=O)C(N)CN (centres undefined)
inactive: dose: 43.75 mg/kg/injection, schedule: Q01DX009 (ip), vehicle: saline with Tween-80 97 % of control | dose: 87.5 mg/kg/injection, schedule: Q01DX009 (ip), vehicle: saline with Tween-80 97 % of control | dose: 175.5 mg/kg/injection, schedule: Q01DX009 (ip), vehicle: saline with Tween-80 97 % of control

CC(=O)n1c(Cl)c(/C=N/NC(N)=S)c2ccccc21
inactive: [5] 86 % of control | [6] 94 % of control | [7] 100 % of control

O=C(O)C(Cc1ccccc1F)NC(=O)C(F)(F)F (centres undefined)
inactive: [8] 92 % of control | [9] 94 % of control | dose: 200.0 mg/kg/injection, schedule: Q01DX009 (ip), vehicle: saline with Tween-80 100 % of control

NC(=O)NC1(N)C(=O)NC(=O)NC1=O
inactive: dose: 60.0 mg/kg/injection, schedule: Q01DX005 (ip), vehicle: saline with Tween-80 94 % of control | dose: 120.0 mg/kg/injection, schedule: Q01DX005 (ip), vehicle: saline with Tween-80 95 % of control | dose: 240.0 mg/kg/injection, schedule: Q01DX005 (ip), vehicle: saline with Tween-80 93 % of control

Nn1cnc2c(nnn2Cc2ccccc2)c1=O
inactive: [4] 104 % of control | dose: 200.0 mg/kg/injection, schedule: Q04DX002 (ip), vehicle: saline with Tween-80 100 % of control

S=C(S)NN1CCOCC1
inactive: dose: 100.0 mg/kg/injection, schedule: Q01DX009 (ip), vehicle: saline 88 % of control | dose: 200.0 mg/kg/injection, schedule: Q01DX009 (ip), vehicle: saline 110 % of control | dose: 400.0 mg/kg/injection, schedule: Q01DX009 (ip), vehicle: saline 106 % of control

COc1ccc(C2(c3ccc(OC)cc3)N=NC3(C)CC32)cc1 (centres undefined)
inactive: [5] 92 % of control | [6] 89 % of control | [7] 86 % of control

Cc1nc(C(=O)OCc2ccccc2)cc(OCc2ccccc2)c1C
inactive: dose: 12.5 mg/kg/injection, schedule: Q01DX009 (ip), vehicle: distilled water + Tween-80 101 % of control | dose: 25.0 mg/kg/injection, schedule: Q01DX009 (ip), vehicle: distilled water + Tween-80 90 % of control | dose: 50.0 mg/kg/injection, schedule: Q01DX009 (ip), vehicle: distilled water + Tween-80 95 % of control | dose: 100.0 mg/kg/injection, schedule: Q01DX009 (ip), vehicle: distilled water + Tween-80 90 % of control | dose: 200.0 mg/kg/injection, schedule: Q01DX009 (ip), vehicle: distilled water + Tween-80 93 % of control

CC(C)N(Cc1ccccc1)CC(O)c1ccc(Cl)cc1 (centres undefined)
inactive: dose: 12.5 mg/kg/injection, schedule: Q01DX009 (ip), vehicle: saline with Tween-80 104 % of control | dose: 25.0 mg/kg/injection, schedule: Q01DX009 (ip), vehicle: saline with Tween-80 108 % of control | [8] 100 % of control and 108 % of control | [9] 95 % of control
